Test results: article PMC5090206, “Fluselenamyl: A Novel Benzoselenazole Derivative for PET Detection of Amyloid Plaques (Aβ) in Alzheimer’s Disease” (Scientific Reports, 2016)

Key:
Aβ plaques = Aβ plaques (Homo sapiens, UniProt P05067); assay: Histochemical staining of mouse brain hippocampus sections; set-up: species or system mice; details: 10 months old
Source text: Aβ imaging ligands and disease-modifying therapeutics have been investigated using APP^+/−/PS1^+/− transgenic mice models. Further, we assessed the ability of 5 to stain ex vivo brain sections (50 μm) of age-matched APP^+/−/PS1^+/− mice and their WT (BL/6) counterparts, using established procedures. As a positive control, anti-Aβ monoclonal antibody (mHJ3.4 conjugated to Alexa Fluor 568) was used[34]. […] By comparison, 5 indicated no staining in 10 months old WT mice (SI, Fig. 3) thus indicating its target specificity.
(§1) Scientific Reports Version of August 4, 2016
µm) were cut in the coronal plane on a freezing sliding microtome and stored at -20°C. 7,8 Tissue was stained as free-floating sections. Prior to staining, tissue sections were permeabilized with PBS-Tritron-X-100 (0.25%) for 30 minutes, and then blocked with 1% non-fat dry milk in PBS-Ttiton-X-100 for 60 minutes.
Hippocampus tissue sections of APP+/-/PS1+/- and age-matched control BL/6 (WT, SI Figure 3) were incubated with fluorescent molecule 5 (100 nM dissolved in 1% ethanol in PBS) for 60 minutes, and washed 3-times with PBS-Triton-X-100.9 Thereafter, tissue sections were incubated with mouse-anti-Aβ (mHJ3.4) 7 that was directly conjugated to Alexa 568 for 90 minutes and washed 3-times with PBS-Triton-X-100. […]

Aβ1–42 fibrils = target: T1, Aβ1–42 fibrils (Homo sapiens, UniProt P05067); assay: Fluorescence binding assay of 5 with preformed Aβ1–42 fibrils; details: preformed Aβ1–42 aggregates in PBS, single site binding model
T1 construct: Commercially available amyloid peptide Aβ1-42; purchased
T1 sequence (P05067 672-713 limits assumed): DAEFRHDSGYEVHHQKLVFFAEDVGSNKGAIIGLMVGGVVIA
Protocol: For assessing the ability of 5 to bind Aβ plaques; preliminary binding assays with preformed Aβ1–42 fibrils were performed in PBS. […] Additionally, it is also noteworthy that no fluorescence was observed using Aβ aggregates alone in PBS following excitation at 392 nm (a negative control).
as §1
Preparation of Aβ fibrils.
Commercially available amyloid peptide Aβ1-42 (433 µg) was gently dissolved in PBS (1 mL, pH 7.4, 100 µM)5. The solution was incubated for 36-48 h at 37°C with continuous gentle shaking to avoid gel formation at the meniscus. The aggregated peptide suspension was stored at -80°C until needed (the […]
Binding of 5 with Aβ fibrils
In vitro binding assays to preformed fibrils were performed using literature procedures. […]
indicating binding to Aβ aggregates, similar to enhancement in fluorescence of thioflavin-T in PBS (a positive control; data not shown). Additionally, it is also noteworthy that no fluorescence was observed using Aβ aggregates alone in PBS upon excitation at 410 nm (a negative control). All measurements were made in triplicates; fluorescence of either 5 alone or fibrils at a given concentration was subtracted. […]
SI Figure 2. […] All measurements were made in triplicates; fluorescence of either 5 alone or fibrils at a given concentration was subtracted. […]

Aβ plaques, sequence (P05067 672-711 limits assumed): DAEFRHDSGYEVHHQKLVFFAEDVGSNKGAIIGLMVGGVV

## CN(C)c1ncc(/C=C\c2nc3cc(OCCF)ccc3[se]2)cn1 [compound 5, (Z)-5-(2-(5-(2-fluoroethoxy)benzo[d][1,3]selenazol-2-yl)vinyl)-N,N-dimethylpyrimidin-2-amine]
Aβ plaques; 100 nM, APP+/−/PS1+/− mice
  staining of Aβ plaques in hippocampus brain sections: abundant staining of Aβ plaques
Aβ plaques; WT mice
  staining of brain sections: no staining
Aβ1–42 fibrils
  Kd: 1.58 ± 0.05 nM
